In patent US8415156B2, “Recombinant laminin-521” (Biolamina AB, priority 2010, dated 2013):

How the values were obtained:
human ES cells = experiment: Long-term culture with single cell dissociation passaging (Example 1); assay type: cell-based; conditions: for proliferation rate compared with Matrigel / classical methods: single cell suspension passaging vs passaging in clumps
Experimental: Human ES cells were cultured on r-laminin-521-coated laboratory dishes in chemically defined O3 medium (described in Rodin et al., Nature Biotechnol., vol. 28, pp. 611-615 (2010)) at 37° C. in 5% CO2. Cells were routinely passed once every 10-12 days by exposure to Trypsin-EDTA solution (GIBCO Invitrogen) for 5 minutes at 37° C. They were then gently pipetted to break into single-cell suspension and defined trypsin inhibitor (GIBCO Invitrogen) was added. The cell suspension was centrifuged […], the supernatant discarded, the cell pellet resuspended in prewarmed O3 medium, and cells were then passed through a 40 μm sieve. After that cells were plated on new r-laminin-521-coated dishes at a concentration 30 Kcells/cm^2 (1:25-1:30 split ratio). Cells were fed once a day with fresh medium prewarmed in an incubator for 1 hour, except for the first day after a passage, when only a few drops of fresh medium were added. Control cells of the same line were cultured on Matrigel (BD Biosciences) in O3 medium as described in Rodin et al., Nature Biotechnol., vol. 28, pp. 611-615 (2010). Control cells were passaged in pieces.

myosin light chain (MLC) = experiment: Western blot of phosphorylated myosin light chain; assay type: cell-based, human; conditions: one and six hours after plating
Experimental: HS181 cells were trypsinized into single cell suspension as described above. For inhibition experiments, the cells were kept in O3 medium with blocking antibodies or pathway inhibitors for 30 minutes and then 450K cells were plated on 35 mm dishes precoated with the appropriate matrix coating. For other experiments, same number of cells was plated directly after trypsinization. […] After two washings in ice-cold PBS, the plates with cells were snap frozen in liquid nitrogen and stored at −80° C. To prepare samples for western blots and ELISA, the plates were slowly thawed and kept on ice with 100-150 μl of lysis buffer (50 mM Tris-HCl, pH7.5, 150 mM NaCl, 0.5% deoxycholate, 0.5% SDS, 1% Triton X-100, 1% Igepal, Complete™ (Roche) and Phospho-Stop™ (Roche)) on top. Then, the cells were scraped, pipetted and sheared through a 27G ¾″ needle. After that, the cell pellets were clarified by centrifugation at 16,100 rcf for 15 minutes at 4° C. For western blots, 4-12% gradient gels were used for SDS electrophoresis and the proteins were transferred to PVDF membranes. The membrane was hybridized with the antibody of interest according to the manufacturer's instructions. Chemoluminescent HRP-substrate from Amersham Biosciences was used for visualization. For the densitometry analysis the films were scanned at 2,400 dpi and analyzed by the Chemilmager5500 program (1D-Multi Line densitometry mode). […]

HS181, HS401, H1 cells = experiment: Long-term self-renewal of hES cells on LN-521 (Example 2); assay type: cell-based, human
Experimental: Human ES cells of HS181 and HS401 were cultured on LN-521-coated culture dishes in O3 medium (described in Rodin et al., Nature Biotechnol., vol. 28, pp. 611-615 (2010) with pH was adjusted to 7.35), mTeSR1 (STEMCELL Technologies) and chemically defined and xeno-free TeSR2 (STEMCELL Technologies) at 37° C., 5% CO2. Initially, cells of the lines were transferred onto a LN-521 coating from a human feeder cell layer by careful scratching using a sterile knife with subsequent trypsinization, or the cells were trypsinized into single cell suspension from a LN-511 coating. The cells were provided once a day with fresh medium pre-warmed in an incubator for one hour, except for the first day after plating, when only a few drops of fresh medium were added. Cells were routinely passed once in 10-12 days by exposure to Trypsin/EDTA (GIBCO Invitrogen Corporation, Paisley, Scotland) for 5 minutes at 37° C., 5% CO2. They were then gently pipetted to break into single-cell suspension and a Defined Trypsin Inhibitor (GIBCO Invitrogen) was added. The cell suspension was centrifuged at 25 rcf for 4 minutes, the supernatant was discarded, the cell pellet was resuspended in prewarmed O3 medium, and the cells were then passed through a 40 μm sieve. Subsequently, the cells were plated on new LN-521-coated dishes at a concentration of 30,000 cells/cm^2 in 1:25-1:30 split ratios. Control cells of the same line were cultured on Matrigel (STEMCELL Technologies) and LN-511 in O3 medium as described previously.^9
For defined and xeno-free cultures, TeSR2 (STEMCELL Technologies) medium and defined free from any animal derived component TrypLE™ Select (GIBCO Invitrogen Corporation, Paisley, Scotland) enzyme were used. The cells were passed every 10-14 days by exposure to TrypLE™ Select for 4-5 minutes at 37° C., 5% CO2. Then, the enzyme was carefully aspirated and prewarmed TeSR2 medium was added. After that, the cells were gently pipetted to break into single-cell suspension, centrifuged, the supernatant was discarded, and the cell pellet was resuspended in prewarmed TeSR2. The cells were then passed through a 40 μm sieve and plated on a fresh LN-521 coated dish.

## LN-521: protein formed by joining α5, β2 and γ1 chains together; human recombinant, produced in HEK293 cells
Human ES cells; 3 passages = 1 month, Matrigel passaged in pieces, 20 passages (3 months / 100 days)
  passages in single cell suspension giving the same number of cell divisions as cultures on Matrigel after 20 passages: 3 passages
Human ES cells; single cell passaging every 10-12 days, 1:25 to 1:30 ratios, 3 months
  passages with robust proliferation at a stable and high rate: at least 9 passages
Human ES cells
  proliferation rate compared with Matrigel / classical methods: much faster rate
Human ES cells; listed as laminin-521
  proliferation rate compared with Matrigel / classical methods: higher rate
Myosin light chain (MLC)
  phosphorylation of MLC compared with cells on Matrigel and LN-111: even higher
HS181, HS401, H1 cells; O3 medium, 2 months
  passages of proliferation, HS401 cells: ≥ 5 passages
HS181, HS401, H1 cells; O3 medium, 6 months
  passages of proliferation, H1 cells: ≥ 15 passages
HS181, HS401, H1 cells; O3 medium, 9 months
  passages of proliferation, HS181 cells: at least 24 passages
HS181, HS401, H1 cells; TeSR2, TrypLE Select, xeno-free, 1.5 months
  passages cultured, HS401 cells: 4 passages
HS181, HS401, H1 cells; TeSR2, TrypLE Select, xeno-free, 5 months
  passages cultured, H1 cells: 12 passages
HS181, HS401, H1 cells; TeSR2 medium and TrypLE Select
  plating efficacy after a passage in TeSR2 compared with O3 or mTeSR1 media: slightly lower
